{"source": "patent US6867034B2", "about": "“Methods of screening novel agents for use in cancer therapy and prevention” (The Curators of The University of Missouri, priority 2000, dated 2005)", "origin": "cited, not measured here", "key": {"Dictyostelium cells": {"system": "Dictyostelium cells", "conditions": "300 μM cisplatin"}, "repB": {"system": "repB", "conditions": "after cisplatin treatment, versus basal levels"}, "repD": {"system": "repD", "conditions": "after cisplatin treatment, versus basal levels"}}}
{"smiles": "N.N.[Cl][Pt][Cl]", "note": "[cisplatin]", "values": [{"measurement": "viability of the cells", "setting": "Dictyostelium cells", "result": "reduced by three orders of magnitude"}, {"measurement": "levels of repB mRNA", "setting": "repB", "result": "rapidly increase from basal levels"}, {"measurement": "levels of repD mRNA", "setting": "repD", "result": "rapidly increase from basal levels"}]}
